Paper PMC8879074, “A Novel Small Molecular Prostaglandin Receptor EP4 Antagonist, L001, Suppresses Pancreatic Cancer Metastasis” (Molecules, 2022)

What was measured:
[1] = system: YAP protein in BxPC-3 cells; assay: Western blotting of YAP protein, BxPC-3; format: cell-based, human; conditions: 10 μM PGE2
Description: (§1) Cells were lysed in RIPA lysis buffer with phosphatase and protease inhibitors (Calbiochem, San Diego, CA, USA) and denatured by heating at 100 °C for 10 min. Proteins were separated on 10% bis-tris polyacrylamide gels, transferred to nitrocellulose filter membranes (Millipore, Burlington, NJ, USA), and blocked with 5% BSA (Sangon Biotech, Shanghai, China). The membranes were incubated with the indicated primary antibodies overnight and subsequently probed with indicated secondary antibodies. Images of the blots were taken and analyzed by Odyssey imaging system (Li-COR Biosciences, Lincoln, NE, USA). The primary antibodies were listed as follows: Human-YAP (1:10,000 dilution, CY5381, abways); Mouse-YAP (1:1000 dilution, ab205270, abcam); EP4 (1:500 dilution, 101775, Cayman Chemical); GAPDH (1:10,000 dilution, Ab181602, abcam).

Pan02 cells [2] = assay: Transwell migration assay, Pan02; format: cell-based, murine; conditions: 0.1 μM PGE2; 16 h
Description: (§2) The transwell assay was conducted as described previously, using 8 μm pore transwell inserts (Corning, NY, USA). Cells were suspended in serum-free DMEM and seeded into upper chambers at appropriate density. The bottom chamber was filled with DMEM supplemented with 10% fetal bovine serum and indicated concentrations of PGE2. The compounds were added in both upper and bottom chambers. […] Migrated cells were counted and quantified using image J.

[3] = system: YAP, CYR61, CTGF, Vimentin, Snail, E-cadherin mRNA in BxPC-3 cells; assay: Real-time qPCR of YAP, YAP target genes and EMT markers, BxPC-3; format: cell-based, human; conditions: 10 μM PGE2
Description: (§3) Total RNA was extracted from cells using TRIzol reagent. The cDNA was synthesized by RT-PCR kit (Vazyme Biotech, Nanjing, China). The band intensity was determined by the gel image analysis system (Bio-Rad, Hercules, CA, USA). SYBR Green-based qPCR (Yeason, Shanghai, China) was conducted subsequently. Relative mRNA levels of target genes were normalized with β-actin. The sequences of primers are listed in Supplementary Table S1. The raw data are listed in Supplementary Table S2.

BxPC-3 cells [4] = assay: Transwell migration assay, BxPC-3; format: cell-based, human; conditions: 0.1 μM PGE2; 16 h
Description: as §2

[5] = system: YAP, CYR61 and CTGF mRNA in Pan02 cells; assay: Real-time qPCR of YAP and YAP target genes, Pan02; format: cell-based, murine; conditions: 10 μM PGE2
Description: as §3

[6] = system: YAP/TEAD reporter in BxPC-3 cells; assay: TEAD-driven luciferase reporter assay, BxPC-3; format: cell-based, human; conditions: 16 h
Description: (§4) CHO-K1 cells or pancreatic cancer cell lines were transfected with a cAMP responsive element (CRE) reporter or TEAD reporter using lipofectamine 2000 according to the manufacturer’s manual. […] Then, cells were lysed and luciferase activities were determined using Dual-Luciferase Reporter Assay Kit (Promega, Madison, WI, USA).

BxPC-3 cells [7] = assay: Wound healing assay, BxPC-3; format: cell-based, human; conditions: various concentrations of PGE2
Description: (§5) The wound healing assay was performed according to a standard protocol as described before. Briefly, Pan02 and BxPC-3 cells were grown as a confluent monolayer in 12-well plates (Corning, Corning, NY, USA) overnight and starved with serum-free medium for 6 h. The monolayer cells were disrupted with a P100 micropipette tip (JET BIOFIL, Guangzhou, China) and rinsed with PBS to remove detached cells. Medium containing different concentrations of compounds was added subsequently. After 24 h, treated cells were stained with 2 μM calcein-AM (Yeasen, Shanghai, China) for 20 min and washed with PBS. Photos were taken of the area in the scraped zone of each dish at 100× magnification by using an inverted fluorescent microscope (OLYMPUS, Tokyo, Japan).

[8] = system: YAP protein in Pan02 cells; assay: Western blotting of YAP protein, Pan02; format: cell-based, murine; conditions: 10 μM PGE2
Description: as §1

Pan02 cells [9] = assay: Wound healing assay, Pan02; format: cell-based, murine; conditions: various concentrations of PGE2
Description: as §5

[10] = system: YAP/TEAD reporter in Pan02 cells; assay: TEAD-driven luciferase reporter assay, Pan02; format: cell-based, murine; conditions: 16 h
Description: as §4

[11] = system: Pan02-Luc hepatic metastasis; assay: Pan02-Luc liver metastasis model with bioluminescent imaging; format: in vivo, C57BL/6 mice; conditions: L001 or E7046 75 mg/kg p.o. daily, gemcitabine 25 mg/kg i.p. twice a week; for reduction of Pan02 cell liver metastases (bioluminescence of separated livers) / reduction in median luminescence signal compared with vehicle control group: n = 6; for reduction in median luminescence signal compared with vehicle control group: day 28; for median survival: n = 9, control 34 days
Description: (§6) Male C57/BL6 mice (6–8 weeks) were obtained from the National Rodent Laboratory Animal Resources (NRLAR, Shanghai, China). All mice were housed according to Institutional Animal Care and Use Committee guidelines and under a protocol approved by East China Normal University Ethics Committee with respect to animal care and welfare assurance. The bioluminescent liver metastasis mouse model was established as described previously. In brief, 2 × 10^6 Pan02/luc cells suspended in 50 μL of PBS were injected into mice spleen. […] Tumor metastasis was monitored by using an in vivo imaging system following intraperitoneal injection with D-Luciferin (2 mg per mouse; Promega). Bioluminescence intensity was recorded every seven days by a Xenogen IVIS-200 Optical in vivo imaging system (PerkinElmer; Waltham, MA, USA) for up to 4 weeks. The mouse body weight was measured every other day. Survival curve analysis was performed using GraphPad Prism 7.
Mouse liver tissues were harvested, fixed, paraffin embedded, and sectioned (8 μm). The tissues were permeabilized with 0.25% TritonX-100 at room temperature for 15 min, blocked with 1% FBS in PBS, and followed by incubation in primary antibodies at 4 °C overnight: rabbit anti-YAP (1:50 dilution, ab205270, abcam). The sections were then washed with PBS, incubated with anti-rabbit secondary antibody for 2 h and dyed with DAPI (10 μg/mL in PBS) for 5 min at room temperature. Slides were mounted using DPX Mountant (Electron Microscopy Sciences) and images were obtained by inverted fluorescence microscope (Olympus, Tokyo, Japan).

[12] = Body weight of mice in Pan02-Luc metastasis model; format: in vivo, C57BL/6 mice; conditions: L001 75 mg/kg p.o. daily; gemcitabine 25 mg/kg i.p. twice a week; n = 6
Description: as §6

SMILES | level of intracellular YAP protein over time [1] | increase in migrated Pan02 cells (Pan02 cells [2]) [fold] | expression of YAP target genes CYR61 and CTGF over time [3] | increase in migrated BxPC-3 cells (BxPC-3 cells [4]) [fold] | expression of YAP target genes CYR61 and CTGF over time [5] | max luminescence fold increase of TEAD-driven luciferase activity [6] [fold] | cell motility (wound closure) vs vehicle (BxPC-3 cells [7]) | level of intracellular YAP protein over time [8] | cell motility (wound closure) vs vehicle (Pan02 cells [9]) | max luminescence fold increase of TEAD-driven luciferase activity [10] [fold] | H&E imaging of liver sections [11] | reduction of Pan02 cell liver metastases (bioluminescence of separated livers) [11] [%] | reduction in median luminescence signal compared with vehicle control group [11] [%] | median survival [11] [days] | body weight loss [12]
CCCCC[C@H](O)/C=C/[C@H]1[C@H](O)CC(=O)[C@@H]1C/C=C\CCCC(=O)O [PGE2, Prostaglandin E2, reference compound] | significantly increased | 1.2 | elevated | 2.5 | elevated | 1.56 | significantly promoted the motility | significantly increased | significantly promoted the motility | 1.87 | – | – | – | – | –
Nc1ccn([C@@H]2O[C@H](CO)[C@@H](O)C2(F)F)c(=O)n1 [gemcitabine] | – | – | – | – | – | – | – | – | – | – | remarkably reduced metastatic clusters | 93.2 | 91.79 | 46 | barely found
C[C@H](NC(=O)c1c(C(F)F)nn(C)c1Oc1cccc(C(F)(F)F)c1)c1ccc(C(=O)O)cc1 [E7046] | – | – | – | – | – | – | – | – | – | – | remarkably reduced metastatic clusters | 76.42 | 69.13 | 35 | –
